Experimental data: PubChem BioAssay (NCI)
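These data come from cells grown in 96-well plates and exposed to compound for 48 hours at five concentrations. Here, GI50 denotes the concentration required for 50% inhibition of growth. TGI marks complete inhibition of growth.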

What was measured:
Experiment in all cases: NCI-60 cell line screen, 48 h
[1] = system: DU-145 prostate
[2] = system: HCT-15 colon
[3] = system: OVCAR-3 ovarian
[4] = system: K-562 leukemia
[5] = system: SK-MEL-5 melanoma
[6] = system: PC-3 prostate
[7] = system: HS 578T breast
[8] = system: OVCAR-5 ovarian
[9] = system: NCI-H23 lung
[10] = system: TK-10 renal
[11] = system: NCI-H460 lung
[12] = system: SN12C renal
[13] = system: UACC-62 melanoma
[14] = system: NCI/ADR-RES ovarian
[15] = system: HT29 colon
[16] = system: BT-549 breast
[17] = system: SF-268 CNS
[18] = system: HCT-116 colon
[19] = system: SW-620 colon
[20] = system: HOP-62 NSCLC
[21] = system: RXF 393 renal
[22] = system: MCF7 breast
[23] = system: UO-31 renal
[24] = system: COLO 205 colon
[25] = system: MALME-3M melanoma
[26] = system: M14 melanoma
[27] = system: SK-OV-3 ovarian
[28] = system: NCI-H522 lung
[29] = system: SR leukemia
[30] = system: MDA-MB-435
[31] = system: 786-0 renal
[32] = system: SNB-19 CNS
[33] = system: RPMI-8226 leukemia
[34] = system: CCRF-CEM leukemia
[35] = system: SF-295 CNS
[36] = system: OVCAR-8 ovarian
[37] = system: ACHN renal
[38] = system: MOLT-4 leukemia
[39] = system: KM12 colon
[40] = system: EKVX NSCLC
[41] = system: OVCAR-4 ovarian
[42] = system: U251 CNS
[43] = system: A549 NSCLC
[44] = system: SK-MEL-28 melanoma
[45] = system: LOX IMVI melanoma
[46] = system: T-47D breast
[47] = system: CAKI-1 renal
[48] = system: A498 renal
[49] = system: HCC-2998 colon
[50] = system: SF-539 CNS
[51] = system: HL-60(TB) leukemia
[52] = system: IGROV1 ovarian

For `COc1ccc(Cl)cc1N1C(=O)C(Cl)=C(Nc2cccc(O)c2)C1=O`, which GI50 [1] is on record?
Its GI50 is 21.8 µM.

And the TGI [1]?
Its TGI is over 100 µM.

What about the GI50 [2] of the same molecule?
Its GI50 is 14.4 µM.

What about the TGI [2] of the same molecule?
The TGI was 29.1 µM.

And the GI50 [3]?
Its GI50 is 11.5 µM.

What about the TGI [3] of the same molecule?
Its TGI is 36.5 µM.

What about the GI50 [4] of the same molecule?
The GI50 was 18.5 µM.

And the TGI [4]?
Its TGI is 46.2 µM.

What about the GI50 [5] of the same molecule?
The GI50 was 23 µM.

What about the TGI [5] of the same molecule?
Its TGI is 39.8 µM.

And the GI50 [6]?
Its GI50 is 17.8 µM.

What about the TGI [6] of the same molecule?
Its TGI is 38.6 µM.

And the GI50 [7]?
The GI50 was 15.8 µM.

What about the TGI [7] of the same molecule?
Its TGI is 46.2 µM.

And the GI50 [8]?
The GI50 was 28.7 µM.

And the TGI [8]?
The TGI was 94.4 µM.

And the GI50 [9]?
Its GI50 is 16.6 µM.

What about the TGI [9] of the same molecule?
The TGI was 41.4 µM.

What about the GI50 [10] of the same molecule?
The GI50 was 11.3 µM.

And the TGI [10]?
The TGI was 31.9 µM.

And the GI50 [11]?
The GI50 was 17.9 µM.

What about the TGI [11] of the same molecule?
The TGI was 48.6 µM.

And the GI50 [12]?
The GI50 was 14.7 µM.

And the TGI [12]?
Its TGI is 29.8 µM.

What about the GI50 [13] of the same molecule?
Its GI50 is 12.3 µM.

What about the TGI [13] of the same molecule?
Its TGI is 27.9 µM.

And the GI50 [14]?
The GI50 was 27.2 µM.

What about the TGI [14] of the same molecule?
Its TGI is 95.4 µM.

And the GI50 [15]?
The GI50 was 19.9 µM.

What about the TGI [15] of the same molecule?
The TGI was 59.9 µM.

What about the GI50 [16] of the same molecule?
The GI50 was 11.8 µM.

What about the TGI [16] of the same molecule?
Its TGI is 46.2 µM.

What about the GI50 [17] of the same molecule?
The GI50 was 13.2 µM.

And the TGI [17]?
Its TGI is 30.7 µM.

And the GI50 [18]?
Its GI50 is 11.8 µM.

What about the TGI [18] of the same molecule?
Its TGI is 24.9 µM.

What about the GI50 [19] of the same molecule?
The GI50 was 27.4 µM.

What about the TGI [19] of the same molecule?
The TGI was 63 µM.

And the GI50 [20]?
The GI50 was 23.7 µM.

And the TGI [20]?
The TGI was 74.8 µM.

What about the GI50 [21] of the same molecule?
The GI50 was 7.36 µM.

What about the TGI [21] of the same molecule?
Its TGI is 29 µM.

And the GI50 [22]?
Its GI50 is 19.2 µM.

And the TGI [22]?
The TGI was 41.5 µM.

And the GI50 [23]?
The GI50 was 13.2 µM.

And the TGI [23]?
Its TGI is 26.6 µM.

What about the GI50 [24] of the same molecule?
Its GI50 is 21.6 µM.

What about the TGI [24] of the same molecule?
The TGI was 57.1 µM.

What about the GI50 [25] of the same molecule?
The GI50 was 14.5 µM.

What about the TGI [25] of the same molecule?
The TGI was 50.4 µM.

What about the GI50 [26] of the same molecule?
Its GI50 is 14 µM.

And the TGI [26]?
Its TGI is 29.9 µM.

And the GI50 [27]?
Its GI50 is 34.2 µM.

What about the TGI [27] of the same molecule?
Its TGI is over 100 µM.

And the GI50 [28]?
Its GI50 is 6.48 µM.

What about the TGI [28] of the same molecule?
The TGI was 20.1 µM.

What about the GI50 [29] of the same molecule?
The GI50 was 13.8 µM.

What about the TGI [29] of the same molecule?
The TGI was 54.5 µM.

And the GI50 [30]?
The GI50 was 24.6 µM.

What about the TGI [30] of the same molecule?
Its TGI is 62.8 µM.

What about the GI50 [31] of the same molecule?
The GI50 was 21.1 µM.

What about the TGI [31] of the same molecule?
The TGI was 60.2 µM.

What about the GI50 [32] of the same molecule?
The GI50 was 30.2 µM.

What about the TGI [32] of the same molecule?
The TGI was over 100 µM.

And the GI50 [33]?
Its GI50 is 7.01 µM.

What about the TGI [33] of the same molecule?
Its TGI is 32.3 µM.

What about the GI50 [34] of the same molecule?
The GI50 was 14.5 µM.

And the TGI [34]?
Its TGI is 43.8 µM.

And the GI50 [35]?
Its GI50 is 17.1 µM.

And the TGI [35]?
The TGI was 82.9 µM.

What about the GI50 [36] of the same molecule?
Its GI50 is 15.1 µM.

And the TGI [36]?
The TGI was 31.2 µM.

What about the GI50 [37] of the same molecule?
Its GI50 is 16.9 µM.

What about the TGI [37] of the same molecule?
The TGI was 48.6 µM.

And the GI50 [38]?
The GI50 was 15.4 µM.

And the TGI [38]?
Its TGI is 49.4 µM.

And the GI50 [39]?
The GI50 was 28.7 µM.

What about the TGI [39] of the same molecule?
The TGI was over 100 µM.

And the GI50 [40]?
Its GI50 is 32.8 µM.

And the TGI [40]?
The TGI was over 100 µM.

What about the GI50 [41] of the same molecule?
Its GI50 is 16.7 µM.

What about the TGI [41] of the same molecule?
The TGI was 40 µM.

And the GI50 [42]?
The GI50 was 17.5 µM.

And the TGI [42]?
The TGI was 48 µM.

What about the GI50 [43] of the same molecule?
Its GI50 is 20.1 µM.

And the TGI [43]?
The TGI was 59.2 µM.

What about the GI50 [44] of the same molecule?
Its GI50 is 24.4 µM.

And the TGI [44]?
The TGI was 83.8 µM.

What about the GI50 [45] of the same molecule?
Its GI50 is 15.8 µM.

And the TGI [45]?
Its TGI is 32.8 µM.

What about the GI50 [46] of the same molecule?
The GI50 was 22.6 µM.

What about the TGI [46] of the same molecule?
The TGI was over 100 µM.

What about the GI50 [47] of the same molecule?
The GI50 was 19.2 µM.

And the TGI [47]?
The TGI was 55.2 µM.

What does the source list for `COc1ccc(-c2ccc(/C=N/n3cn[nH]c3=S)o2)c([N+](=O)[O-])c1`?
GI50 [48]: 1.35 µM; TGI [48]: 10.3 µM; GI50 [1]: 80.5 µM; TGI [1]: > 100 µM; GI50 [2]: 26 µM; TGI [2]: > 100 µM; GI50 [3]: 33.9 µM; TGI [3]: > 100 µM; GI50 [4]: 16.9 µM; TGI [4]: 36.9 µM; GI50 [6]: 35.7 µM; TGI [6]: > 100 µM; GI50 [49]: 38.9 µM; TGI [49]: > 100 µM; GI50 [7]: 30.6 µM; TGI [7]: 85.3 µM; GI50 [8]: 97.1 µM; TGI [8]: > 100 µM; GI50 [9]: 39.3 µM; TGI [9]: > 100 µM; GI50 [10]: 18 µM; TGI [10]: 86.6 µM; GI50 [11]: 36.1 µM; TGI [11]: > 100 µM; GI50 [12]: 59.1 µM; TGI [12]: > 100 µM; GI50 [13]: 41.1 µM; TGI [13]: > 100 µM; GI50 [14]: 30.5 µM; TGI [14]: 94 µM; GI50 [15]: 32.6 µM; TGI [15]: > 100 µM; GI50 [16]: 30.1 µM; TGI [16]: > 100 µM; GI50 [17]: 29.1 µM; TGI [17]: > 100 µM; GI50 [18]: 29.6 µM; TGI [18]: 94.4 µM; GI50 [19]: 29.8 µM; TGI [19]: > 100 µM; GI50 [20]: 62.2 µM; TGI [20]: > 100 µM; GI50 [21]: 32.2 µM; TGI [21]: > 100 µM; GI50 [22]: 25.4 µM; TGI [22]: 89.1 µM; GI50 [23]: 54.4 µM; TGI [23]: > 100 µM; GI50 [24]: 45.6 µM; TGI [24]: > 100 µM; GI50 [25]: 23.8 µM; TGI [25]: > 100 µM; GI50 [26]: 49 µM; TGI [26]: > 100 µM; GI50 [27]: 45.5 µM; TGI [27]: > 100 µM; GI50 [28]: 40.2 µM; TGI [28]: > 100 µM; GI50 [30]: 19.8 µM; TGI [30]: 44.8 µM; GI50 [31]: 66.2 µM; TGI [31]: > 100 µM; GI50 [32]: 63.2 µM; TGI [32]: > 100 µM; GI50 [33]: 22.5 µM; TGI [33]: 70.1 µM; GI50 [34]: 26.1 µM; TGI [34]: 75.3 µM; GI50 [35]: 36 µM; TGI [35]: > 100 µM; GI50 [36]: 38.2 µM; TGI [36]: > 100 µM; GI50 [50]: 40.9 µM; TGI [50]: > 100 µM; GI50 [37]: 50.7 µM; TGI [37]: > 100 µM; GI50 [38]: 16.3 µM; TGI [38]: 50.8 µM; GI50 [51]: 14.5 µM; TGI [51]: 33.7 µM; GI50 [39]: 27.2 µM; TGI [39]: > 100 µM; GI50 [40]: 75 µM; TGI [40]: > 100 µM; GI50 [52]: 39.6 µM; TGI [52]: > 100 µM; GI50 [41]: 82.9 µM; TGI [41]: > 100 µM; GI50 [43]: 36.2 µM; TGI [43]: > 100 µM; GI50 [44]: 48.6 µM; TGI [44]: > 100 µM; GI50 [46]: 51.8 µM; TGI [46]: > 100 µM; GI50 [47]: 32.6 µM; TGI [47]: > 100 µM
